Results as given in the NIST ThermoML archive (doi:10.1016/j.jct.2010.01.014).
± gives the expanded uncertainty stated by the source.

Conditions: Crystal, Calculated from knudsen effusion weight loss

OC1c2ccccc2-c2ccccc21 [9H-fluoren-9-ol]
Conditions | vapor or sublimation pressure [kPa]
326.1 K | 2.1e-05 ± 2.4e-06
327.5 K | 2.44e-05 ± 2.8e-06
329.8 K | 3.15e-05 ± 3.6e-06
331.3 K | 3.74e-05 ± 4.3e-06
334.9 K | 5.12e-05 ± 6.1e-06
340.9 K | 0.000101 ± 1.1e-05
342.6 K | 0.000115 ± 1.3e-05
343.6 K | 0.000123 ± 1.4e-05
344.7 K | 0.000144 ± 1.6e-05
346.1 K | 0.000159 ± 1.8e-05
347.4 K | 0.000186 ± 2.2e-05
351.2 K | 0.000276 ± 3.1e-05
355.1 K | 0.000402 ± 4.5e-05
358.7 K | 0.00056 ± 6.3e-05
361.9 K | 0.00074 ± 8.3e-05
366.1 K | 0.00103 ± 0.00013

ON=C1c2ccccc2-c2ccccc21 [9-oximinofluorene]
Conditions | vapor or sublimation pressure [kPa]
374.5 K | 0.000175 ± 1.9e-05
376.6 K | 0.000198 ± 2.2e-05
378.5 K | 0.000231 ± 2.5e-05
382.6 K | 0.000302 ± 3.4e-05
383.2 K | 0.000317 ± 3.5e-05
386.2 K | 0.000385 ± 4.2e-05
387.9 K | 0.000428 ± 4.6e-05
389.9 K | 0.000474 ± 5.2e-05
393.8 K | 0.000613 ± 6.7e-05
395.2 K | 0.000671 ± 7.3e-05
398.6 K | 0.000816 ± 8.8e-05

O=C1c2ccccc2-c2ccccc21 [9(9H)-fluorenone]
Conditions | vapor or sublimation pressure [kPa]
300.8 K | 1.21e-05 ± 4.9e-06
303.6 K | 1.69e-05 ± 6.8e-06
307.9 K | 2.79e-05 ± 1.1e-05
309.8 K | 3.65e-05 ± 1.5e-05
313 K | 5.1e-05 ± 2.1e-05
313.1 K | 5.09e-05 ± 2.1e-05
315.1 K | 6.16e-05 ± 2.5e-05
323 K | 0.000139 ± 5.6e-05
323.1 K | 0.000143 ± 5.8e-05
324.5 K | 0.000159 ± 6.4e-05
324.7 K | 0.000167 ± 6.8e-05
328.4 K | 0.000246 ± 9.9e-05
328.6 K | 0.000245 ± 9.9e-05
330.9 K | 0.000311 ± 0.00013
331.1 K | 0.000319 ± 0.00013
331.9 K | 0.000345 ± 0.00014
336.5 K | 0.000528 ± 0.00021
336.6 K | 0.00054 ± 0.00022
337.8 K | 0.000596 ± 0.00024
337.9 K | 0.000599 ± 0.00024
342.7 K | 0.000937 ± 0.00038
342.8 K | 0.000952 ± 0.00038

c1ccc2c(c1)[nH]c1cnccc12 [9H-pyrido[3,4-b]indole]
Conditions | vapor or sublimation pressure [kPa]
352.8 K | 5.7e-06 ± 7.4e-07
363.8 K | 1.74e-05 ± 1.9e-06
367.9 K | 2.56e-05 ± 2.9e-06
368.1 K | 2.72e-05 ± 3.1e-06
370.3 K | 3.37e-05 ± 3.9e-06
371.4 K | 4.16e-05 ± 4.7e-06
371.5 K | 4.16e-05 ± 4.7e-06
374.1 K | 5.03e-05 ± 5.7e-06
374.4 K | 5.45e-05 ± 6.1e-06
378.2 K | 7.53e-05 ± 8.4e-06
381.8 K | 0.000103 ± 1.2e-05
382 K | 0.000107 ± 1.2e-05
382.2 K | 0.000108 ± 1.2e-05
385.4 K | 0.000141 ± 1.9e-05
385.9 K | 0.000155 ± 2e-05
389.2 K | 0.000218 ± 2.4e-05
389.4 K | 0.000229 ± 2.6e-05

O=C1c2ccccc2C(=O)c2ccccc21 [9,10(9H,10H)-anthracenedione]
Conditions | vapor or sublimation pressure [kPa]
346 K | 4.49e-06 ± 6.7e-07
359.9 K | 2.09e-05 ± 2.3e-06
360.9 K | 2.2e-05 ± 2.4e-06
362.7 K | 2.52e-05 ± 2.9e-06
367.4 K | 4.1e-05 ± 4.6e-06
369.9 K | 5.42e-05 ± 6.5e-06
377.6 K | 0.000119 ± 1.4e-05
379.2 K | 0.000144 ± 1.6e-05
380.1 K | 0.000149 ± 1.6e-05
385.4 K | 0.000267 ± 3e-05
385.8 K | 0.000263 ± 3.3e-05
386.8 K | 0.000305 ± 3.6e-05
392.7 K | 0.000493 ± 5.4e-05
392.8 K | 0.000494 ± 5.5e-05
393.4 K | 0.000519 ± 5.8e-05
399.2 K | 0.000872 ± 0.0001
399.9 K | 0.000948 ± 0.00011

c1ccc2c(c1)Nc1ccccc1O2 [phenoxazine]
Conditions | vapor or sublimation pressure [kPa]
329.7 K | 2.81e-05 ± 3.5e-06
336.7 K | 5.94e-05 ± 6.8e-06
340.9 K | 0.000102 ± 1.2e-05
344.9 K | 0.000164 ± 1.9e-05
345.1 K | 0.000164 ± 1.8e-05
346.9 K | 0.000196 ± 2.2e-05
348.2 K | 0.00022 ± 2.5e-05
352.9 K | 0.000345 ± 3.9e-05
353.1 K | 0.000363 ± 4e-05
356.7 K | 0.000483 ± 5.5e-05
360.9 K | 0.000748 ± 8.5e-05
364.5 K | 0.00107 ± 0.00014

c1ccc2c(c1)Oc1ccccc1S2 [phenoxathiin]
Conditions | vapor or sublimation pressure [kPa]
304.2 K | 8.61e-05 ± 1e-05
308.7 K | 0.000143 ± 1.7e-05
311.4 K | 0.000209 ± 2.3e-05
311.5 K | 0.000207 ± 2.6e-05
311.9 K | 0.000217 ± 2.4e-05
318.2 K | 0.000453 ± 5.2e-05
323 K | 0.000771 ± 8.7e-05
324.5 K | 0.000927 ± 0.00011
